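How tested: cells in 96-well plates exposed to compound for 48 hours at five concentrations. The concentration for full growth arrest is given as TGI.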
Assays:
Assay in all cases: DTP human tumour cell line panel, 48 h
COLO 205 colon = test system: COLO 205 colon
HCC-2998 colon = test system: HCC-2998 colon
HCT-116 colon = test system: HCT-116 colon
HCT-15 colon = test system: HCT-15 colon
NCI/ADR-RES ovarian = test system: NCI/ADR-RES ovarian
RPMI-8226 leukemia = test system: RPMI-8226 leukemia
SF-268 CNS = test system: SF-268 CNS
T-47D breast = test system: T-47D breast
TK-10 renal = test system: TK-10 renal
UACC-257 melanoma = test system: UACC-257 melanoma

| SMILES | TGI (COLO 205 colon) [µM] | TGI (HCC-2998 colon) [µM] | TGI (HCT-116 colon) [µM] | TGI (HCT-15 colon) [µM] | TGI (NCI/ADR-RES ovarian) [µM] | TGI (RPMI-8226 leukemia) [µM] | TGI (SF-268 CNS) [µM] | TGI (T-47D breast) [µM] | TGI (TK-10 renal) [µM] | TGI (UACC-257 melanoma) [µM] |
| --- | --- | --- | --- | --- | --- | --- | --- | --- | --- | --- |
| OC(c1ccc(-c2ccccc2)cc1)C(F)(F)c1nc2ccccc2o1 (stereo not drawn) | > 100 | > 100 | > 100 | > 100 | > 100 | > 100 | > 100 | > 100 | > 100 | > 100 |
| COC(=O)c1c(OC(C)=O)ccc2c1c1c(OC(C)=O)c3ccccc3c(OC(C)=O)c1n2Cc1ccccc1 | 15.6 | 5.22 | 11.5 | 14.7 | 46.6 | 5.4 | 19.4 | 10.5 | > 50 | > 50 |
| CC1=NN(C(=O)CSc2nc3ccc(I)cc3c(=O)n2Cc2ccccc2)C(=O)C1 | 92.5 | > 100 | > 100 | 52.4 | 58.3 | > 100 | 69.5 | 60.3 | > 100 | 85.4 |
| O=C(CC(=O)Nc1ccccc1)N/N=C/c1cc(N=Nc2ccc(Br)cc2)ccc1O | > 10 | > 10 |  | > 10 | > 10 | > 10 | > 10 | > 10 | > 10 | 7.71 |
| Brc1ccc(-c2cn3ccncc3n2)cc1 | > 100 |  | > 100 | > 100 | > 100 | > 100 | > 100 | > 100 | > 100 | 85.6 |
| CC(C)(C)OC(=O)NCCC1CN(C(=O)c2ccccc2)c2ccccc21 (stereo not drawn) | 40 | > 100 | 43 | > 100 | 57.5 | 54.4 | > 100 | 95.5 | > 100 | 75.2 |
| COc1nc(N)c(N=CC(OC(C)=O)C(OC(C)=O)C(COC(C)=O)OC(C)=O)c(=O)n1C (stereo not drawn) | > 100 | > 100 | > 100 | > 100 | > 100 | > 100 | > 100 | > 100 | > 100 | > 100 |
| COc1ccc(N=C2C(=Nc3ccc(OC)cc3)N(c3ccccc3)C(=S)N2N=C=C2Sc3ccccc3N2C)cc1 | > 100 | > 100 | > 100 | > 100 | > 100 | > 100 | > 100 | > 100 | > 100 | > 100 |
| Cc1cc(O)c(C(C)C)cc1C1(c2cc(C(C)C)c(O)cc2C)OC(=O)c2ccccc21 | 4.96 | 3.48 | 3.09 | 4.93 | 12 | 3.17 | 4.83 | 6.44 | 11.1 | 3.6 |
| O=C(/C=C/c1csc(-c2ccccc2)n1)NCc1ccc(C(=O)NCc2ccccc2)cc1 | > 100 | > 100 | > 100 | > 100 | > 100 | > 100 | > 100 | > 100 | 85.8 | > 100 |
| C#CCOCC12C=CC(O1)C1C(=O)OCC12 (stereo not drawn) | > 100 | > 100 | > 100 | > 100 | > 100 | > 100 | > 100 | > 100 | > 100 | > 100 |

From PubChem BioAssay (NCI)
